Test results published in the NIST ThermoML archive (doi:10.1016/j.jct.2018.02.013).
Numbers after ± are expanded uncertainties.

Tests used:
[1] = 101.33 kPa, Liquid; for thermal conductivity: transient hot wire; for mass density: Vibrating tube method; for viscosity: Cone and plate viscometry; for electrical conductivity: Direct current cell with electrodes
[2] = molar heat capacity at constant pressure; conditions: 101.33 kPa, Liquid, Small sample (50 mg) DSC

## CCCCCCCC(=O)[O-].CCCCCCCCCCCCCC[P+](CCCCCC)(CCCCCC)CCCCCC [trihexyl(tetradecyl)phosphonium octanoate]
[1]; 278.28 K
  thermal conductivity: 0.1611 ± 0.011 W/m/K
[1]; 288.24 K
  thermal conductivity: 0.1601 ± 0.011 W/m/K
[1]; 293.15 K
  mass density: 884.5 ± 1.9 kg/m3
[1]; 293.2 K
  viscosity: 513.6 ± 38 mPa·s
[1]; 297.87 K
  thermal conductivity: 0.1581 ± 0.01 W/m/K
[1]; 298.15 K
  mass density: 881.4 ± 1.9 kg/m3
[1]; 298.2 K
  viscosity: 400.2 ± 29 mPa·s
[1]; 300.6 K
  electrical conductivity: 0.00251 ± 0.00016 S/m
[1]; 303.15 K
  mass density: 878.4 ± 1.9 kg/m3
[1]; 303.2 K
  viscosity: 301.2 ± 21 mPa·s
[1]; 303.6 K
  electrical conductivity: 0.00345 ± 0.00017 S/m
[1]; 307.71 K
  thermal conductivity: 0.1567 ± 0.011 W/m/K
[1]; 308 K
  electrical conductivity: 0.00428 ± 0.00019 S/m
[1]; 308.2 K
  viscosity: 230.8 ± 16 mPa·s
[1]; 313.15 K
  mass density: 872.1 ± 1.9 kg/m3
[1]; 313.2 K
  viscosity: 179.3 ± 12 mPa·s
[1]; 313.4 K
  electrical conductivity: 0.0057 ± 0.00025 S/m
[1]; 317.92 K
  thermal conductivity: 0.1561 ± 0.011 W/m/K
[1]; 318.2 K
  viscosity: 141.2 ± 9.1 mPa·s
[1]; 319 K
  electrical conductivity: 0.0073 ± 0.00032 S/m
[1]; 323.15 K
  mass density: 865.9 ± 1.8 kg/m3
[1]; 323.2 K
  viscosity: 113 ± 7.2 mPa·s
[1]; 323.8 K
  electrical conductivity: 0.0091 ± 0.0004 S/m
[1]; 328.17 K
  thermal conductivity: 0.1547 ± 0.012 W/m/K
[1]; 328.2 K
  viscosity: 91.42 ± 5.7 mPa·s
[1]; 328.4 K
  electrical conductivity: 0.011 ± 0.00048 S/m
[1]; 333.15 K
  mass density: 859.8 ± 1.8 kg/m3
[1]; 333.2 K
  viscosity: 75.22 ± 4.6 mPa·s
  electrical conductivity: 0.0137 ± 0.0006 S/m
[1]; 337.66 K
  thermal conductivity: 0.1527 ± 0.012 W/m/K
[1]; 338.2 K
  viscosity: 62.47 ± 3.8 mPa·s
[1]; 338.6 K
  electrical conductivity: 0.017 ± 0.00072 S/m
[1]; 343 K
  electrical conductivity: 0.0198 ± 0.00084 S/m
[1]; 343.15 K
  mass density: 853.7 ± 1.8 kg/m3
[1]; 343.2 K
  viscosity: 52.65 ± 3.2 mPa·s
[1]; 347.76 K
  thermal conductivity: 0.1507 ± 0.012 W/m/K
[1]; 348.2 K
  viscosity: 44.4 ± 2.7 mPa·s
[1]; 349.5 K
  electrical conductivity: 0.0247 ± 0.001 S/m
[1]; 353.15 K
  mass density: 847.6 ± 1.8 kg/m3
[1]; 353.2 K
  viscosity: 37.98 ± 2.3 mPa·s
[1]; 358.08 K
  thermal conductivity: 0.1497 ± 0.012 W/m/K
[1]; 358.2 K
  viscosity: 32.78 ± 2 mPa·s
[1]; 363.15 K
  mass density: 841.6 ± 1.8 kg/m3
[1]; 363.2 K
  viscosity: 28.12 ± 1.7 mPa·s
[1]; 368.2 K
  viscosity: 24.48 ± 1.5 mPa·s
[2]; 293.15 K
  molar heat capacity at constant pressure: 1138.1 ± 70 J/K/mol
[2]; 298.15 K
  molar heat capacity at constant pressure: 1150.7 ± 71 J/K/mol
[2]; 303.15 K
  molar heat capacity at constant pressure: 1160.7 ± 71 J/K/mol
[2]; 308.15 K
  molar heat capacity at constant pressure: 1170.1 ± 72 J/K/mol
[2]; 313.15 K
  molar heat capacity at constant pressure: 1178.9 ± 73 J/K/mol
[2]; 318.15 K
  molar heat capacity at constant pressure: 1185.8 ± 73 J/K/mol
[2]; 323.15 K
  molar heat capacity at constant pressure: 1192.7 ± 73 J/K/mol
[2]; 328.15 K
  molar heat capacity at constant pressure: 1199.6 ± 74 J/K/mol
[2]; 333.15 K
  molar heat capacity at constant pressure: 1206.5 ± 75 J/K/mol
[2]; 338.15 K
  molar heat capacity at constant pressure: 1213.4 ± 75 J/K/mol
[2]; 343.15 K
  molar heat capacity at constant pressure: 1220.9 ± 75 J/K/mol
[2]; 348.15 K
  molar heat capacity at constant pressure: 1228.4 ± 76 J/K/mol
[2]; 353.15 K
  molar heat capacity at constant pressure: 1235.3 ± 76 J/K/mol
[2]; 358.15 K
  molar heat capacity at constant pressure: 1242.2 ± 77 J/K/mol
[2]; 363.15 K
  molar heat capacity at constant pressure: 1247.2 ± 77 J/K/mol
